In PubChem BioAssay AID179 (DTP/NCI, 2004) one finds outcome, EC50 and IC50 data, which are given here for 30 compounds.

The test system of this assay is CEM cells HIV-1 protection, formazan growth assay. In words: NCI AIDS Antiviral Assay. To be noted: for IC50: measured here: growth of uninfected CEM cells. In outline: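 Protection of CEM cells against HIV-1 measured as cell growth via soluble formazan read-out, with five concentrations tested on both infected and uninfected cells; failure to protect may reflect toxicity.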

SMILES strings stand for the structures. Active and inactive are the calls of the source.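 How the source made its calls: active means compounds giving half or more protection of infected cells from virus-caused growth loss, again on retest; inactive means the rest.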

For the compound `NC(=O)CCC(NCc1c2ccccc2[n+]([O-])c2ccccc12)C(=O)O` (stereo unspecified), the result was inactive.
With `Nc1nc(N)nc(-c2cnc3ccccc3c2)n1`, the EC50 is more than 200 µM and the IC50 was more than 200 µM.
Turning to `S=C1NC(=NC2CCCCC2)C2(CCN(CCc3ccccc3)CC2)N1c1ccccc1`, the EC50 was more than 100 µM and the IC50 came out at 53.7 µM.
For `COc1ccc(S(=O)c2ccc(OC)cc2)cc1`, the EC50 is more than 955 µM and the IC50 amounted to 490 µM.
The matching figures for `O=[N+]([O-])C[C@@]12O[C@]3(O)C4C5CC(C6C5C3C61)C42` (stereo partly specified): more than 200 µM and more than 200 µM.
For the compound `Cc1cc2nc(-c3ccccc3Cl)[nH]c2cc1C`, the EC50 was more than 100 µM and the IC50 is 32.4 µM.
`CCCCCCCCCCCCCCCCNC(=S)N/C=C(/C#N)C(=O)OC`: the outcome was inactive.
On to `S=C(SSC(=S)N1CCOCC1)N1CCOCC1`, for which the EC50 is more than 20 µM and the IC50 worked out at 0.724 µM.
`CC1=C(C)C(=O)c2c(cc3ccccn23)C1=O`: the result was inactive.
`CCn1c2ccccc2c2c(-c3ccccc3)cc3c(c21)C(=O)N(c1ccccc1)C3=O`: the EC50 was more than 6.61 µM and the 50% inhibitory concentration (IC50) was more than 6.61 µM.
In the case of `Cc1cc(C)nc(NS(=O)(=O)c2ccc(NNc3c4ccccc4nc4c(C(=O)Nc5ccc(S(=O)(=O)N=C(N)N)cc5)cccc34)cc2)n1`, the EC50 was more than 200 µM and the concentration for half-maximal inhibition (IC50) came out at 31.6 µM.
The matching figures for `O=C(Nc1nc(C23CC4CC(CC(C4)C2)C3)cs1)c1cc2cc(Cl)ccc2oc1=O`: more than 200 µM and more than 200 µM.
The matching figures for `CC1=Nc2ccccc2N=C(c2c(O)c3c(ccc4ccccc43)oc2=O)C1`: more than 200 µM and 20 µM.
For the compound `CN1C(=O)/C(=c2\sc3nc4ccccc4n3c2=O)c2ccccc21`, the outcome was inactive.
With `Cc1cc2c(cc1C)Nc1oc3ccc4ccccc4c3c(=O)c1C=N2`, the EC50 is more than 200 µM and the IC50 is more than 200 µM.
For the compound `c1ccc(C(CNCCN2CCCCCC2)C2CCCCC2)cc1` (stereo unspecified), the EC50 was more than 100 µM and the IC50 was 11.5 µM.
Consider `O=C1Cc2cccc(=O)c(O)c2C(=O)O1`, for which the EC50 was more than 1200 µM and the IC50 was 282 µM.
As to `Nc1ncnc2c1C=C(B(O)O)B(O)N2`, the EC50 was more than 126 µM and the IC50 turned out to be 74.1 µM.
In the case of `CCNC(=O)c1cc(NC(=O)c2ccc(C(=O)Nc3cc(C(=O)NCC)cc(C4=NCCN4)c3)cc2)cc(C2=NCCN2)c1`, the EC50 is more than 200 µM and the IC50 was 87.1 µM.
Take `c1ccc(-c2cn3nc(N4CCOCC4)sc3n2)cc1`: the EC50 is more than 200 µM and the IC50 is more than 200 µM.
Consider `COc1c2c(cc3oc(C)cc(=O)c13)OC(=N)C(C(N)=O)C2CC(=O)c1ccc(N)cc1` (stereo unspecified), for which the EC50 was 45.7 µM and the IC50 is more than 100 µM.
With `CC1CN1C(=O)NCCCCCCNC(=O)N1CC1C` (stereo unspecified), the EC50 is more than 200 µM and the IC50 was 4.79 µM.
Take `CCOC(=O)C1=C(C)N(NC(N)=O)C2(N)N(NC(N)=O)C(C)=C(C(=O)OCC)C12C#N` (stereo unspecified): the EC50 is more than 575 µM and the half-inhibitory concentration (IC50) came to 427 µM.
As for `CC1(C)OC(=O)C(=Cc2cccc(C#N)c2)C(=O)O1`, the EC50 was more than 708 µM and the half-maximal inhibitory concentration (IC50) was 41.7 µM.
For `C=C1C(=O)O[C@H]2C1C[C@@H](OC(C)=O)/C(C)=C/CC[C@@]1(C)O[C@H]21` (stereo partly specified) the same measures were more than 200 µM and 1.2 µM.
The matching figures for `O=C1CCc2nc3ccccc3c(=O)n21`: more than 1260 µM and more than 1260 µM.
The matching figures for `CC1(C)CC2=NOS3=C2C(=NO3)C1c1ccccn1` (stereo unspecified): more than 200 µM and 95.5 µM.
For the compound `CCOC(=O)c1ccc(N=Cc2ccc(N(CCC#N)S(=O)(=O)c3ccccc3)cc2C)cc1`, the EC50 is more than 75.9 µM and the IC50 is more than 75.9 µM.
`COc1ccc(/C=C(\C#N)c2ccccc2)cc1`: the EC50 was more than 8.51 µM and the IC50 worked out at 6.31 µM.
Regarding `O=C(/C=C/c1cccs1)c1ccccc1Cl`, the EC50 was more than 200 µM and the IC50 worked out at 11.2 µM.
